Where “and” joins values, the source holds several entries; their conditions need not be identical. Identical values can stand only once.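 Protocol summary: plate cells (96-well), add compound at 5 concentrations, incubate 48 h, interpolate endpoints linearly. At the GI50, growth is halved. The concentration for full growth arrest is given as TGI.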
Tests used:
Assay in all cases: growth of human tumour cells (NCI), 48 h
U251 CNS = tested on: U251 CNS
RPMI-8226 leukemia = tested on: RPMI-8226 leukemia
SN12C renal = tested on: SN12C renal
IGROV1 ovarian = tested on: IGROV1 ovarian
COLO 205 colon = tested on: COLO 205 colon
M14 melanoma = tested on: M14 melanoma
K-562 leukemia = tested on: K-562 leukemia
CAKI-1 renal = tested on: CAKI-1 renal

SMILES | TGI (U251 CNS) [µM] | TGI (RPMI-8226 leukemia) [µM] | TGI (SN12C renal) [µM] | TGI (IGROV1 ovarian) [µM] | TGI (COLO 205 colon) [µM] | TGI (M14 melanoma) [µM] | TGI (K-562 leukemia) [µM] | TGI (CAKI-1 renal) [µM] | GI50 (U251 CNS) [µM] | GI50 (RPMI-8226 leukemia) [µM] | GI50 (SN12C renal) [µM] | GI50 (IGROV1 ovarian) [µM] | GI50 (COLO 205 colon) [µM] | GI50 (M14 melanoma) | GI50 (K-562 leukemia) | GI50 (CAKI-1 renal) [µM]
c1cnc2c(c1)Nc1cnncc1S2 | > 100 | > 100 | > 100 | > 100 | > 100 | > 100 | > 100 | > 100 | – | – | – | – | – | – | – | –
Nc1cccc2nsnc12 | > 100 | > 86.9 | > 100 | > 100 | > 100 | > 100 | > 85.4 | > 100 | – | – | – | – | – | – | – | –
COC(=O)Nc1nc2ccc(Sc3ccccc3)cc2[nH]1 | 4.37 | > 36.6 | 25.7 | 18.3 | 0.533 | 1.43 | – | > 43.5 | 0.168 | 0.358 | 0.524 | 0.441 | 0.188 | 0.0892 µM | 0.0482 µM | 0.225
C=C1CO[C@@H]2C[C@@H]1CC/C(C)=C/CC/C(C)=C/CC[C@@]2(C)O | 32.4 | 33.9 | 43.7 | 28.8 | > 60.9 | 32.9 | > 46.2 | 41.8 | 17.9 | 10.9 | 20 | 3.96 | 27.3 | 17.9 µM | 15.1 µM | 20.3
O=C(/C=C/c1cccc(B(O)O)c1)c1cccc(B(O)O)c1 | 1.52 | 5.68 | 3.61 | 6.65 | 3.45 | 3.33 | 9 | 12.6 | 0.406 | 2.25 | 1.7 | 2.52 | 1.76 | 1.51 µM | 2.13 µM | 2.85
CC(C)[O-].CC(C)[O-].[O-]c1cccc2cccnc12.[O-]c1cccc2cccnc12.[Ti+4] | > 100 | – | – | > 100 | > 100 | > 100 | > 100 | > 100 | > 100 | – | – | – | 24.7 | 9.68 µM and 10.8 µM | 3.04 µM and 3.37 µM | –
Cc1cc2nc3c4ccccc4n(CCN(C)C)c3nc2cc1C | 11.3 | – | 10.5 | 10.2 | 4.49 | 3.36 | 10.7 | 12.2 | 2.01 | – | 1.08 | 1.28 | 1.29 | 1.51 µM | 1.55 µM | 0.982
OC(c1ccccc1)c1c(-c2ccccc2)oc(-c2ccccc2)c1C(O)c1ccccc1 (centres undefined) | 27.6 | 14 | 18.4 | 28.1 | 19.4 | 21.9 | 13.9 | 30.4 | – | – | – | – | – | – | – | –
CSc1ccc(C2=NN(C(=O)c3ccc(N)cc3)C(c3ccc(F)cc3)C2)cc1 (centres undefined) | 12.6 | 4.41 | 10.2 | 25.5 | 22.7 | 15.1 | 11.2 | 37.4 | 3.56 | 1.88 | 2.49 | 4.37 | 7.45 | 4.24 µM | 3.69 µM | 15.4
Brc1ccc(Br)nn1 | 3.18 | 6.44 | 3.53 | 4.92 | 3.77 | 2.82 | 10.3 | 5.07 | 1.47 | 1.83 | 1.62 | 2 | 2.12 | 1.39 µM | 2.17 µM | 1.96
O=P1(O)c2ccccc2CS(=O)(=O)Cc2ccccc21 | > 100 | – | > 100 | > 100 | > 100 | > 100 | > 100 | > 100 | – | – | – | – | – | – | – | –
COc1cccc(Nc2nccc(Nc3ccc4[nH]ncc4c3)n2)c1 | 3.18 | 4.19 | – | – | 3.26 | 2.81 | 3.89 | 2.51 | 1.58 | 1.36 | – | – | 1.57 | 1.35 µM | 1.3 µM | 0.993
Cc1sc(/N=C2/NC(=O)CS2)nc1-c1nc(/N=C2/NC(=O)CS2)sc1C | > 50 | 49.1 | > 50 | > 50 | > 50 | – | > 50 | > 50 | > 50 | 9.59 | > 50 | > 50 | > 50 | – | 26.8 µM | > 50
CCS/C(Nc1ccccc1)=C(\C#N)C(=O)N/N=C/c1ccc(Cl)cc1Cl | > 100 | > 100 | > 100 | > 100 | – | 9.61 | > 100 | > 100 | 3.95 | 3.68 | 6.92 | 6.46 | – | 2.01 µM | 0.855 µM | 2.39
Cc1ccc(-c2cc(/C=N/O)on2)cc1 | > 100 | > 100 | > 100 | > 100 | > 100 | > 100 | – | > 100 | 54.3 | 36.9 | > 100 | 63.8 | 49.9 | 65.4 µM | – | 43.9
C=C(C)[C@@H]1CC[C@]2(C)[C@H](C=CC3=C4C[C@@](C)(CO)CC[C@]4(C)CC[C@]32C)[C@@]1(C)CCCN | 3.32 | – | 3.15 | 2.95 | 3.23 | 3.34 | 5.04 | 2.85 | 1.64 | – | 1.64 | 1.5 | 1.49 | 1.69 µM | 1.8 µM | 1.52
O=C(Nc1ccc(S(=O)(=O)NC2CCCCCC2)cc1)C(c1ccccc1)S(=O)(=O)c1ccc(F)cc1 (centres undefined) | 3.57 | – | 1.81 | 2.89 | – | 2.55 | – | – | 0.51 | – | 0.371 | 0.237 | – | 0.514 µM | – | –
CC[O-].CC[O-].O=C([CH-]C(=O)c1ccccc1)c1ccccc1.O=C([CH-]C(=O)c1ccccc1)c1ccccc1.[Ti+4] | > 100 | > 100 | > 100 | > 100 | > 100 | > 100 | – | > 100 | 57.2 | 45.4 | > 100 | > 100 | > 100 | > 100 µM | – | > 100
